pIC50: −log10 of the molar value. Active and inactive are the calls of the source. The rule behind the calls is not given here.
Assays:
[1] = tested on: HeLa; assay: Antiproliferative activity against human HeLa cells assessed as reduction in cell growth incubated for 72 hrs by resazurin dye based fluorescent assay
[2] = target: T1, Beta-secretase 1 (Homo sapiens, UniProt P56817); assay: Inhibition of BACE1 (unknown origin) using HiLyte Fluo488/QXL-520 as substrate by FRET assay
[3] = target: Voltage-gated inwardly rectifying potassium channel KCNH2 (Homo sapiens, UniProt Q12809); assay: Inhibition of fluorescently labeled tracer binding to human ERG at 200 uM by competitive binding assay
[4] = target: T1, Beta-secretase 1; assay: Inhibition of BACE1 (unknown origin) at 200 uM using HiLyte Fluo488/QXL-520 as substrate by FRET assay
[5] = species: Homo sapiens; assay: Selectivity ratio of IC50 for BACE1 (unknown origin) to IC50 for recombinant His-tagged […] (unknown origin) expressed in Escherichia coli BL21 (DE3) cells

T1 sequence (P56817 whole entry): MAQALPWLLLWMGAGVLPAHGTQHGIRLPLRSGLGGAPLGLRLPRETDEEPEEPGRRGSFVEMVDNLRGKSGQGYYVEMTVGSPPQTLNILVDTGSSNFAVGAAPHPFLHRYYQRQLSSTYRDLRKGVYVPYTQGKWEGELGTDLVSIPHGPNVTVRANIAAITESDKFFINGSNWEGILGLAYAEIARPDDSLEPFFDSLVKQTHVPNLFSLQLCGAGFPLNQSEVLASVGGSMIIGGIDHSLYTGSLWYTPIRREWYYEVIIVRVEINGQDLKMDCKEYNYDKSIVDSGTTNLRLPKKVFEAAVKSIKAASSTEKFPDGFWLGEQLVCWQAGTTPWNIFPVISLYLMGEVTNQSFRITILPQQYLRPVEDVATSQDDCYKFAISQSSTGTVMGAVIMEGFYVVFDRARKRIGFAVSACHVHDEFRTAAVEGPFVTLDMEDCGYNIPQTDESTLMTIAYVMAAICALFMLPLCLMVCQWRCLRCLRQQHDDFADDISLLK
Voltage-gated inwardly rectifying potassium channel KCNH2, sequence (Q12809 whole entry): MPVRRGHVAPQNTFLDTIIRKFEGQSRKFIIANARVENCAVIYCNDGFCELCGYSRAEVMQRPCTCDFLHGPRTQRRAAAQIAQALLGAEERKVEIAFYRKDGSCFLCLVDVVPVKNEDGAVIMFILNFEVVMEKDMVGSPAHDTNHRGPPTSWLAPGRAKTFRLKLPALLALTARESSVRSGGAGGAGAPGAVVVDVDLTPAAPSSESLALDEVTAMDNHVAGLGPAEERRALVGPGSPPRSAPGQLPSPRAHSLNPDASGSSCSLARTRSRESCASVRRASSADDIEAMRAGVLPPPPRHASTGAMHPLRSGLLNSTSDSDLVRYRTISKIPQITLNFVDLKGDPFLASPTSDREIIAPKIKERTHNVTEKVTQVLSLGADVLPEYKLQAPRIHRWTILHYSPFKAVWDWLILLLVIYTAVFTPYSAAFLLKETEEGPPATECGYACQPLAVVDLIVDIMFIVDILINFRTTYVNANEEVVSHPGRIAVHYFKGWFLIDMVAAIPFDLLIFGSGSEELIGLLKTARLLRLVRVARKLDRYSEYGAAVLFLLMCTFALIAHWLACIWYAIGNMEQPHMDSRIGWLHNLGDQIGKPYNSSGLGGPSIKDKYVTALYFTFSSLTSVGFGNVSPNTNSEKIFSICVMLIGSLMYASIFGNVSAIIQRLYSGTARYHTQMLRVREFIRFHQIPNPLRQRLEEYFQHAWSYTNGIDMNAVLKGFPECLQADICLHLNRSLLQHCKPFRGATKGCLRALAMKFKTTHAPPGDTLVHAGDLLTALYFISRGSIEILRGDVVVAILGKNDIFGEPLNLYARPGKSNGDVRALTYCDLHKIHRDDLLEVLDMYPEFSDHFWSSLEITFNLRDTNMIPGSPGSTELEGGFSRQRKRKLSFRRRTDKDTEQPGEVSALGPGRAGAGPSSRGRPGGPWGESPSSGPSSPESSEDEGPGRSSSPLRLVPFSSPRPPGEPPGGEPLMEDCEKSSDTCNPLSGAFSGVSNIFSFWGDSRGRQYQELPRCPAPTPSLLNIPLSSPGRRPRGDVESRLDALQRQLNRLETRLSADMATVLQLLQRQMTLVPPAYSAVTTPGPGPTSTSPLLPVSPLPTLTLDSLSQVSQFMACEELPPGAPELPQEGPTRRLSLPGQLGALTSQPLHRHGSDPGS

| GI50 [1] | pIC50 [2] | inhibition [4] | SMILES | inhibition (INH) [3] | Ratio IC50 [5] |
| --- | --- | --- | --- | --- | --- |
| 3.8 µM |  |  | Nc1nc(NC2CC2)cc(-c2cccc(Cl)c2Cl)n1 |  |  |
| 30 to 90 µM | < 3.70 | inactive | Nc1nc2c(-c3ccncc3F)ccnc2[nH]1 | Not Active |  |
|  |  |  | NCCc1ccc(O)c(C2CCCCC2)c1 |  | 5 |
|  | < 3.70 | inactive | Nc1nc2ncccc2[nH]1 |  |  |
